Measurements as given in US20130129675A1, “INTERFERON THERAPIES IN COMBINATION WITH BLOCKADE OF STAT3 ACTIVATION” (BOARD OF REGENTS, THE UNIVERSITY OF TEXAS SYSTEM, priority 2009, published 2013).

Tests used:
[1] = tested on: intracerebral B16 melanoma; assay: Survival of mice with established intracerebral B16 melanoma; type: in vivo, C57BL/6J mice; details: for median overall survival: WP1193 30 mg/kg oral gavage (sub-therapeutic) from day 3, IFN-α plasmid i.v. day 5, control 17 days; for increase in median survival: versus control (17 days)
Source text: For the in vivo experiments, we used 4- to 6-week-old female C57BL/6J mice maintained in the M. D. Anderson Cancer Center Isolation Facility in accordance with Laboratory Animal Resources Commission standards and conducted according to an Institutional Animal Care and Use Committee-approved protocol, 08-06-11831. A mouse was euthanized when it became unable to reach food or water. To induce intracerebral tumors in C57BL/6J mice, B16 cells were collected in logarithmic growth phase, washed twice with PBS, mixed with an equal volume of 10% methyl cellulose and RPMI 1640 medium and loaded into a 250-μl syringe (Hamilton, Reno, Nev.) with an attached 25-gauge needle. The needle was positioned 2 mm to the right of bregma and 4 mm below the surface of the skull at the coronal suture using a stereotactic frame (Kopf Instruments, Tujunga, Calif.). The intracerebral tumorigenic dose for the B16 cells was 5×10^2 in a total volume of 5 μl.
pORF.IFN-α (IFN-α) plasmid was obtained from Invivogen (29). Hydrodynamic gene transfer (HGT) consisted of a single intravenous (i.v.) injection of 3 μg endotoxin-free pORF plasmid encoding murine IFN-α or pORF control plasmid DNA (InvivoGen, San Diego, Calif.) in 2 ml of saline as previously described. Liu F, Song Y, Liu D, Hydrodynamics-Based Transfection In Animals By Systemic Administration Of Plasmid DNA, Gene Therapy 1999; 6:1258-66. […] Sikora A G, Jaffarzad N, Hailemichael Y, Gelbard A, Stonier S W, Schluns K S, Frasca L, Lou Y, Liu C, Andersson H A, Hwu P, Overwijk W W, IFN-A Enhances Peptide Vaccine-Induced CD8+ T Cell Numbers, Effector Function, And Antitumor Activity, J Immunol 2009, 182:7398-407. The STAT3 inhibitor, WP1193, was synthesized and supplied by Dr. Priebe (M. D. Anderson). WP1193, a third-generation analogue inhibitor of the p-STAT3 pathway, was dissolved in a mixture of 20 parts dimethylsulfoxide (DMSO) to 80 parts polyethylene glycol (PEG) 300 (Sigma-Aldrich, St Louis, Mo.) at titered concentrations and delivered in a final volume of 100 μL. Prior to use, WP1193 was stored as a lyophilized powder at 4° C.
Treatment for the established intracerebral tumors was with WP1193 (starting on day 3) and/or IFN-α (starting on day 5) after B16 tumor cell challenge. Mice were injected intravenously (i.v.) with 2 ml (3 μg) of IFN-α plasmid in saline once. Mice were treated with a sub-therapeutic dose of 30 mg/kg of WP1193 by oral gavage (o.g.) in a vehicle of DMSO/PEG300 (20 parts/80 parts) on […], on a […]. schedule (5 days on, 2 days off). When mice were treated in the therapeutic range of 40 mg/kg, >80% of animals survived long-term (more than 70 days) and synergy with IFN-α could not be assessed. Ten mice per experimental group were used, including treatment with the DMSO/PEG300 vehicle alone in the control group.
Kaplan-Meier product-limit survival probability estimates of overall survival were calculated and log-rank tests were performed to compare overall survival between treatment groups and the control arm. Kaplan E L, Meier P., Nonparametric Estimation From Incomplete Observations, J Am Stat Assoc 1958; 53:457-81; Mantel N., Evaluation Of Survival Data And Two New Rank Order Statistics Arising In Its Consideration, Cancer Chemother Rep 1966; 50:163-70 Ex-vivo or in vitro data are presented as means±standard errors (SEs) of three repeated experiments. Student's t test was performed. A P value below 0.05 was considered statistically significant. […]

[2] = tested on: NK1.1+ NK cells from splenocytes; assay: NK cell activating receptors (flow cytometry); type: cell-based, mice; details: WP1193 2 μM, IFN-α 20 ng/ml, 24 hours (FIGS. 6C and 6D)
Description: Spleens from 4- to 6-week-old female mice were harvested and disassociated into a single-cell suspension as described above. Splenocytes were seeded at a density of 4×10^6 cells/well in 24-well culture plates and cultured with the RPMI 1640 medium in absence or presence of WP1193 (2 μM) and/or INF-α (20 ng/ml) for 24 hours. Afterwards, the cells were harvested and washed twice in PBS with 5% FCS, resuspended in staining buffer and labeled with FITC- or PE-conjugated anti-mouse NK1.1 (eBioscience, San Diego, Calif.) to identify the NK population. […] Following incubation, the cells were washed twice with FACS buffer and then analyzed with a BD FACSCalibur with gates set for viable splenocytes.
Because we observed NK and CD8+ T cell-mediated anti-tumor cytotoxicity were enhanced with combinational therapy, to ascertain if either IFN-α, WP1193 or both were augmenting the expression of MHC or NK activating receptors or their ligands, splenocytes and B16 cells were treated with RPMI 1640 medium (control), WP1193 (2 μM), IFN-α (20 ng/ml), or IFN-α (20 ng/ml)+WP1193 (2 μM) for 24 hours. The NK-activating ligands (Rae-1, H60 and CD155) and MHC (I and II) on B16 cells and the NK-activating receptors (NKG2D, KLRD1, NKp46 and DNAM-1) on NK1.1+ NK cells were analyzed by flow cytometric analysis.

Row | Compound | median overall survival [1] [days] | animals surviving long-term (more than 70 days) ([1]; therapeutic range of 40 mg/kg) [%] | increase in median survival [1] [%] | NKG2D, KLRD1, NKp46 and DNAM-1 on NK cells [2]
1 | N#C/C(=C\c1cccc(Br)n1)C(=O)N[C@H](c1ccccc1)C1CC1 [WP1193, (S,E)-3-(6-bromopyridin-2-yl)-2-cyano-N-(cyclopropyl(phenyl)methyl)acrylamide] | 18.5 | > 80 | 9 | did not appear to be up-regulated
2 | IFN-α | 27.5 | – | 62 | did not appear to be up-regulated
